From ChEMBL document CHEMBL1201862, “PubChem BioAssay data set” (2004)
Calls of active or inactive are those of the source.

Experiments:
[1] = SAR analysis of small molecule activators of Apaf-1 using a LZ-Caspase-9/Caspase-3 Fluorescent Selectivity assay - Set 2.; format: functional; conditions: read-out: EC50_Mean
[2] = molecular target: T1, Apoptotic protease-activating factor 1 (Homo sapiens, UniProt O14727); test: SAR analysis of small molecule Activators of Apaf-1 in a Fluorescent assay - set 2.; format: functional; conditions: read-out: EC50_Mean
T1 sequence (O14727 whole entry): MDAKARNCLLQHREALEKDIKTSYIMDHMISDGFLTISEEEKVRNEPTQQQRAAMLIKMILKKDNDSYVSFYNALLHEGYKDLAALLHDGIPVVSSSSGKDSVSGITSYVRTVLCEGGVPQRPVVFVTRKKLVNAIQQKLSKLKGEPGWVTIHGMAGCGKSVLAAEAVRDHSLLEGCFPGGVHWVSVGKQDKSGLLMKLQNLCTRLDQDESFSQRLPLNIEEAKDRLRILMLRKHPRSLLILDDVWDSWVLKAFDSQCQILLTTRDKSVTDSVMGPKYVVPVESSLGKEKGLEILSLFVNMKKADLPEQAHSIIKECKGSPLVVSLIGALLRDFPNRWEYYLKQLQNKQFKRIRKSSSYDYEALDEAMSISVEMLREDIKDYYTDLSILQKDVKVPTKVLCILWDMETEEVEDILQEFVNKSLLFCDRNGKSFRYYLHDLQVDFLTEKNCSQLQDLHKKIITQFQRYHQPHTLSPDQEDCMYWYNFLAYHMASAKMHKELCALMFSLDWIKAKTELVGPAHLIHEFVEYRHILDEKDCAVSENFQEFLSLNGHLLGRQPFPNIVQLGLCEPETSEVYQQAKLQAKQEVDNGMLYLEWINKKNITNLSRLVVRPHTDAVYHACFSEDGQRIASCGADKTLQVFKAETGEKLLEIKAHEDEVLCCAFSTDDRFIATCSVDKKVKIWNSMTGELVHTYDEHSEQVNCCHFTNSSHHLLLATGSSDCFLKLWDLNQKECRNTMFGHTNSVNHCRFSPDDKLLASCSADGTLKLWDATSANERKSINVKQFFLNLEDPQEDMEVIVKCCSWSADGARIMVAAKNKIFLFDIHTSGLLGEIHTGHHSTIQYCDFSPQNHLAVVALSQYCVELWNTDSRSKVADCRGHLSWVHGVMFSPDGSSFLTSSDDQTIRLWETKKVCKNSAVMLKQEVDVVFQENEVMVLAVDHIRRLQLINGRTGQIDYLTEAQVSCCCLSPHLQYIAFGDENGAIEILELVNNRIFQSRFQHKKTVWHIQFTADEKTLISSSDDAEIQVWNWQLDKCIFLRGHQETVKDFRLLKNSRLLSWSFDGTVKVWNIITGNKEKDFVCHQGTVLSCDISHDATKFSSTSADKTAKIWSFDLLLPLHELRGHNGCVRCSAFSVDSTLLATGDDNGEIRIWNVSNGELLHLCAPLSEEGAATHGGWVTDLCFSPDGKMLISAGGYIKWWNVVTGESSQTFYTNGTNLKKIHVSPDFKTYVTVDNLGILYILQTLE

[3] = molecular target: T2, Voltage-gated N-type calcium channel alpha-1B subunit/Amyloid beta A4 precursor protein-binding family A member 1 (Homo sapiens, UniProt Q00975+Q02410); format: protein assay
[4] = molecular target: T2, Voltage-gated N-type calcium channel alpha-1B subunit/Amyloid beta A4 precursor protein-binding family A member 1; format: protein assay; remark: listed apart in the source
[5] = molecular target: Neurotensin receptor type 1 (Homo sapiens, UniProt P30989); format: functional;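 also: Image-based confirmatory dose-response assay measuring agonist activity at NTR1; NTR1-expressing U2OS osteosarcoma cells imaged for beta-arrestin GFP spot formation; agonist potency where compounds increase beta-arrestin recruitment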
[6] = molecular target: T3, Carboxy-terminal domain RNA polymerase II polypeptide A small phosphatase 1 (Homo sapiens, UniProt Q9GZU7); test: inhibitors of CTDSP1, concentration-response testing, biochemical assay, absorbance-based, actives from ultra-high-throughput screening (AID 540297); format: functional
T3 sequence (Q9GZU7 whole entry): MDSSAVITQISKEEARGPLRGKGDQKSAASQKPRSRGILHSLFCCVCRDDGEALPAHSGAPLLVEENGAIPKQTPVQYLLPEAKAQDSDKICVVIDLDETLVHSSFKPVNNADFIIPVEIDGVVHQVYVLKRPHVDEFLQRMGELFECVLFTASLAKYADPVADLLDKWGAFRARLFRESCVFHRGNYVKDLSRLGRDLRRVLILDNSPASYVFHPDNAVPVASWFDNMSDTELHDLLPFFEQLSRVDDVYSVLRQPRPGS

Melanocortin receptor 4 = Melanocortin receptor 4 (Homo sapiens, UniProt P32245); test: MC4R antagonist potency on cAMP, dose response, cell-based, TR-FRET, biased antagonists (AID 602298); format: functional;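 also: antagonist potency against agonist-stimulated cAMP production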
[7] = nonselective inhibitors of cellular cAMP signaling, dose response, counter-screen for MC4R biased antagonist project, cell-based, TR-FRET cAMP detection (AID 602305); format: functional;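 also: U2OS cells stimulated with forskolin near its EC80 as the cAMP inducer; potency is for inhibition of forskolin-stimulated cAMP signaling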
[8] = molecular target: T4, Histone-lysine N-methyltransferase NSD2 (Homo sapiens, UniProt O96028); format: biochemical
T4 sequence (O96028 whole entry): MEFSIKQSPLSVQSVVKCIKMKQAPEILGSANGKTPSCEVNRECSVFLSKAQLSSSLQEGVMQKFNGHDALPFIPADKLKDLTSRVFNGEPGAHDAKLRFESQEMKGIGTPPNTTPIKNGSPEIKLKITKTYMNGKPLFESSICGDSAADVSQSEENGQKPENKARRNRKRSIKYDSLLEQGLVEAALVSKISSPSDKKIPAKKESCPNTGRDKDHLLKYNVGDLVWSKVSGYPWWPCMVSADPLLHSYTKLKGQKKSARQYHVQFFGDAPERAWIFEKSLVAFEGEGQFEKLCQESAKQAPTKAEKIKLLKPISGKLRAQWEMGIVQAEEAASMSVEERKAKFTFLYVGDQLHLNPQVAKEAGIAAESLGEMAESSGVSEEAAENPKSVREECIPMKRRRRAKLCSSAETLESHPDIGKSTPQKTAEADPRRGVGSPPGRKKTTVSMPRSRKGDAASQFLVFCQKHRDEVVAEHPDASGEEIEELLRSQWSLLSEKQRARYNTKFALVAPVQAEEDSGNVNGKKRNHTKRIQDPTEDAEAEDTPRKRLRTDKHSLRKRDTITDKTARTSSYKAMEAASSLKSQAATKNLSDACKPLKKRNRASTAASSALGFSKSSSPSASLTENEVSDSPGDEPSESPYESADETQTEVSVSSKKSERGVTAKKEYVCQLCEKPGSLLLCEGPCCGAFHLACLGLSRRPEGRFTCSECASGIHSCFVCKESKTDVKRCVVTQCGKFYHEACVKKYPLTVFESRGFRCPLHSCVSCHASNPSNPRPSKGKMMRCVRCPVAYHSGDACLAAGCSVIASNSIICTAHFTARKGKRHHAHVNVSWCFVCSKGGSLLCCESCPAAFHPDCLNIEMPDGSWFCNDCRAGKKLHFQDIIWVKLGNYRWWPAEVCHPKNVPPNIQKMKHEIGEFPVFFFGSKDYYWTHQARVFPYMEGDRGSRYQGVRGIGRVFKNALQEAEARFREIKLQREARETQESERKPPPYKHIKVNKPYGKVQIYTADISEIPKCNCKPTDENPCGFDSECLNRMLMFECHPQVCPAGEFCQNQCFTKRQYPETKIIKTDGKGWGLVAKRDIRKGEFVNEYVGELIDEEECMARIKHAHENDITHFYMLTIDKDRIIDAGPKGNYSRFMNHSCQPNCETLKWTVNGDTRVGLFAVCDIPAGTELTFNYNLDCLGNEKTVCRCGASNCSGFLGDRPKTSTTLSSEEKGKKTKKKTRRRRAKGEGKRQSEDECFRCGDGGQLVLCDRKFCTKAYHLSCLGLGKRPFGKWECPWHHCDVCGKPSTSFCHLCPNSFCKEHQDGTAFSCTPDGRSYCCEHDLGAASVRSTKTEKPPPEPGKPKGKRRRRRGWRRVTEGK

[9] = molecular target: Protein disulfide-isomerase (Homo sapiens, UniProt P07237); test: PDI inhibitors, insulin aggregation turbidity, dose response, biochemical, absorbance, cherry-picked samples (AID 602350); format: functional
[10] = Vero cell cytotoxicity, cytotoxicity control for M. tuberculosis inhibitor project, purified and synthesized samples, set 3 (AID 504684); format: functional
[11] = THP-1 cell cytotoxicity, cytotoxicity control, set 4 (AID 504911); format: functional; conditions: Mycobacterium tuberculosis
[12] = A Cell Based Secondary Assay to Explore Cytotoxicity in HepG2 Cells of Compounds that Modulate Mycobacterium tuberculosis in Media Containing Glycerol versus Media without Glycerol (2).; format: functional
[13] = THP-1 cell cytotoxicity, dose response, cytotoxicity control, set 3 (AID 504852); format: functional; conditions: Mycobacterium tuberculosis
[14] = Vero cell cytotoxicity, dose response, cytotoxicity control for M. tuberculosis growth inhibitor project, Vero cells, purified and synthesized compounds, set 4 (AID 504854); format: functional; conditions: Mycobacterium tuberculosis
[15] = molecular target: Serine/threonine-protein kinase pim-1 (Homo sapiens, UniProt P11309); format: functional
[16] = molecular target: Cell division cycle 7-related protein kinase (Homo sapiens, UniProt O00311); format: functional;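 also: value obtained from a kinome-wide kinase panel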
[17] = molecular target: Homeodomain-interacting protein kinase 2 (Homo sapiens, UniProt Q9H2X6); format: functional;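 also: measured within a kinome-wide kinase profiling panel, HIPK2 being one panel member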
[18] = molecular target: Interleukin-1 receptor-associated kinase 4 (Homo sapiens, UniProt Q9NWZ3); format: functional
[19] = molecular target: Glycogen synthase kinase-3 beta (Homo sapiens, UniProt P49841); format: functional;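 also: value comes from a broad kinome profiling panel, with GSK3B as the panel member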
[20] = molecular target: cAMP-dependent protein kinase catalytic subunit alpha (Homo sapiens, UniProt P17612); format: functional
[21] = molecular target: Dual specificity protein kinase CLK4 (Homo sapiens, UniProt Q9HAZ1); format: functional
[22] = molecular target: Mitogen-activated protein kinase kinase kinase kinase 4 (Homo sapiens, UniProt O95819); format: functional
CHO-K1 = test: (§1) Counterscreen for antagonists of the orexin 1 receptor (OX1R; HCRTR1): Homogeneous time resolved fluorescence (HTRF)-based cell-based dose response assay to identify antagonists of the parental CHO-K1 cell line. [Related pubchem assays (depositor defined):AID434989, AID435008, AID463079, AID485270, AID492963, AID492964, AID492965, AID493232, AID504699, AID504701]; format: functional; conditions: Cricetulus griseus
[23] = as §1, with “Fluorescence-based” for “Homogeneous time resolved fluorescence (HTRF)-based”, “cell-based high throughput” for “cell-based”, “CHO” for “CHO-K1”; format: functional
[24] = molecular target: T5, Orexin/Hypocretin receptor type 1 (Homo sapiens, UniProt O43613); test: Homogeneous Time Resolved Fluorescence (HTRF)-based cell-based high throughput dose response assay for antagonists of the orexin 1 receptor (OX1R; HCRTR1). [Related pubchem assays (depositor defined):AID434989, AID435008, AID463079, AID485270, AID492963, AID492964, AID492965, AID493232, AID504717, AID504718]; format: functional
[25] = molecular target: T5, Orexin/Hypocretin receptor type 1; test: Fluorescence-based cell-based high throughput dose response assay for antagonists of the orexin 1 receptor (OX1R; HCRTR1). [Related pubchem assays (depositor defined):AID434989, AID435008, AID463079, AID485270, AID492963, AID492964, AID492965, AID493232, AID504717, AID504718]; format: functional
Orexin receptor type 2 [26] = molecular target: T6, Orexin receptor type 2 (Homo sapiens, UniProt O43614); test: Counterscreen assay for antagonists of the orexin 1 receptor (OX1R; HCRTR1): Fluorescence-based cell-based dose response assay for antagonists of the orexin 2 receptor (OX2R; HCRTR2), run by assay provider.; format: functional
Orexin receptor type 2 [27] = molecular target: T6, Orexin receptor type 2; test: Counterscreen assay for antagonists of the orexin 1 receptor (OX1R; HCRTR1): Homogeneous Time Resolved Fluorescence (HTRF)-based cell-based dose response assay for antagonists of the orexin 2 receptor (OX2R; HCRTR2), run by assay provider.; format: functional
[28] = molecular target: T7, Neuropeptides B/W receptor type 1 (Homo sapiens, UniProt P48145); test: GPR7 antagonist potency, late-stage follow-up, cell-based, fluorescence, dose response, set 5 (AID 588566); format: functional
T7 sequence (P48145 whole entry): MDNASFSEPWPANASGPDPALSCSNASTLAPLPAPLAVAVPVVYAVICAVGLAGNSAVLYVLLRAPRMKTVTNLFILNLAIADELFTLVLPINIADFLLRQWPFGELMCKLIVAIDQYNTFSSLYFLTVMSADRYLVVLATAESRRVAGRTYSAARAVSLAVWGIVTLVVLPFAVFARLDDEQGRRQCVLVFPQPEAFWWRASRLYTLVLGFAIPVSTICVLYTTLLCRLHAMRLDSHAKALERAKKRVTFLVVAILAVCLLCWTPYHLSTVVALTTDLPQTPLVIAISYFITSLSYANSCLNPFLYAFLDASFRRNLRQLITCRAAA

[29] = molecular target: Melanin-concentrating hormone receptor 1 (Homo sapiens, UniProt Q99705); test: Late-stage fluorescence-based counterscreen for antagonists of the G-protein coupled receptor 7 (GPR7): cell-based dose response assay to identify antagonists of the melanin-concentrating hormone receptor 1 (MCHR1) Set 5.; format: functional

T2 sequence (Q00975 whole entry): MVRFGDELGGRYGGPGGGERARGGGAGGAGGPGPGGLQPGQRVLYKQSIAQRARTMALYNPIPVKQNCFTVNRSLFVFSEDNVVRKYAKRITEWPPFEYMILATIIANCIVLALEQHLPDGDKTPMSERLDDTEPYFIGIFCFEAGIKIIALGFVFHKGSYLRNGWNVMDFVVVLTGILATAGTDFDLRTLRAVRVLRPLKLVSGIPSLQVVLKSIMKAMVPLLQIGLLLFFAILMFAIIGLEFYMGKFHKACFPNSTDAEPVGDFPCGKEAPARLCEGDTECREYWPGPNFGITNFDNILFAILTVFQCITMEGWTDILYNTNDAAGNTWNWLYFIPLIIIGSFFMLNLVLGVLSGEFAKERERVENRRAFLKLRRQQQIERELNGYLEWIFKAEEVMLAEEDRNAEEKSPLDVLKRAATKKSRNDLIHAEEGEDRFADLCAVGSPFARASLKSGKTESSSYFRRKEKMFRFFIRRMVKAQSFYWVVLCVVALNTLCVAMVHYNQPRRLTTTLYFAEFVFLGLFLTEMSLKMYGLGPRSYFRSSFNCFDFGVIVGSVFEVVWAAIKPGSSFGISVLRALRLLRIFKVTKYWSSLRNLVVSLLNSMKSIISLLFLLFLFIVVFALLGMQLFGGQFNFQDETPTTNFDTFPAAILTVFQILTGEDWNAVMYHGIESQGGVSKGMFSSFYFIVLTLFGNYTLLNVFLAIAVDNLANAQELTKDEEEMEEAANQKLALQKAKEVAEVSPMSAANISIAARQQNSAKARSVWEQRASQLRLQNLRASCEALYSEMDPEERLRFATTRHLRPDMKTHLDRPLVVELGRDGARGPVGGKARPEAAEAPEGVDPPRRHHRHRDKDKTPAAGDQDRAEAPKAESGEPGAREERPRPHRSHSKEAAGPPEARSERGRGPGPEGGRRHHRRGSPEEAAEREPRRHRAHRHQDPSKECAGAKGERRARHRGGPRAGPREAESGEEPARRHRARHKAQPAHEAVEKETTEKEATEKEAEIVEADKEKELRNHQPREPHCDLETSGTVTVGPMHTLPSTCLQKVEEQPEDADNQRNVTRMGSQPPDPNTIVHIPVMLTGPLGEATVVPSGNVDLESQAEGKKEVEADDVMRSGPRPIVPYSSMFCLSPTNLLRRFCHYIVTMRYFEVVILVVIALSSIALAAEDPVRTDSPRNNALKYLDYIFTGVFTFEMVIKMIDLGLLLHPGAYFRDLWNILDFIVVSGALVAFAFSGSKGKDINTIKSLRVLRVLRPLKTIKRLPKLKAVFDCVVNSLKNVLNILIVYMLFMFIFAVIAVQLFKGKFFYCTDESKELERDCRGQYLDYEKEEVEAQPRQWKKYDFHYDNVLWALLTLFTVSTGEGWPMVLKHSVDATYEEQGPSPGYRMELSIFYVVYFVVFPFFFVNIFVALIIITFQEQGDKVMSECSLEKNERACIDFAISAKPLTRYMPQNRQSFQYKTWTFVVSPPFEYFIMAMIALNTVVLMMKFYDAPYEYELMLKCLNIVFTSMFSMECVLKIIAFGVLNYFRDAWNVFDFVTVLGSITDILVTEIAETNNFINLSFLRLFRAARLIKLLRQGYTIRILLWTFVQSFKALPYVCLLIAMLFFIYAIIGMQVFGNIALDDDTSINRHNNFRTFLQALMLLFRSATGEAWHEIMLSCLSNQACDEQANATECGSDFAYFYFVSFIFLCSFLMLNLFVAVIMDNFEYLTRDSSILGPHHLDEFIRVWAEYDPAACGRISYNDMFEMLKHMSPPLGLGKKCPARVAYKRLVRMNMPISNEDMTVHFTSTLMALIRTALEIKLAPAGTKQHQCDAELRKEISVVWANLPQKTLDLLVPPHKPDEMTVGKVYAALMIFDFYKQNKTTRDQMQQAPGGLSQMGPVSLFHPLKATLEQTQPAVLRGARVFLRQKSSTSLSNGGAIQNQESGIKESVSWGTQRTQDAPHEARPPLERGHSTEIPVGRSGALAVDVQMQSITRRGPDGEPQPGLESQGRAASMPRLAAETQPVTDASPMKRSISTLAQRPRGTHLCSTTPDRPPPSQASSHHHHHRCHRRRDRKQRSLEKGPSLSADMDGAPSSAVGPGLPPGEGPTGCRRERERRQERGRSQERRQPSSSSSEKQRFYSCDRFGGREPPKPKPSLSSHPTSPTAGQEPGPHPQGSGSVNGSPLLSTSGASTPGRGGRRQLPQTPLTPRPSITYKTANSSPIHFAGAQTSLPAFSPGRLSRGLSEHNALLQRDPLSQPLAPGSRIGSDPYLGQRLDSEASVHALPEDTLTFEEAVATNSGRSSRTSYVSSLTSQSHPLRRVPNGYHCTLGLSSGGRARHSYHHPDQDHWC
T2 sequence (Q02410 whole entry): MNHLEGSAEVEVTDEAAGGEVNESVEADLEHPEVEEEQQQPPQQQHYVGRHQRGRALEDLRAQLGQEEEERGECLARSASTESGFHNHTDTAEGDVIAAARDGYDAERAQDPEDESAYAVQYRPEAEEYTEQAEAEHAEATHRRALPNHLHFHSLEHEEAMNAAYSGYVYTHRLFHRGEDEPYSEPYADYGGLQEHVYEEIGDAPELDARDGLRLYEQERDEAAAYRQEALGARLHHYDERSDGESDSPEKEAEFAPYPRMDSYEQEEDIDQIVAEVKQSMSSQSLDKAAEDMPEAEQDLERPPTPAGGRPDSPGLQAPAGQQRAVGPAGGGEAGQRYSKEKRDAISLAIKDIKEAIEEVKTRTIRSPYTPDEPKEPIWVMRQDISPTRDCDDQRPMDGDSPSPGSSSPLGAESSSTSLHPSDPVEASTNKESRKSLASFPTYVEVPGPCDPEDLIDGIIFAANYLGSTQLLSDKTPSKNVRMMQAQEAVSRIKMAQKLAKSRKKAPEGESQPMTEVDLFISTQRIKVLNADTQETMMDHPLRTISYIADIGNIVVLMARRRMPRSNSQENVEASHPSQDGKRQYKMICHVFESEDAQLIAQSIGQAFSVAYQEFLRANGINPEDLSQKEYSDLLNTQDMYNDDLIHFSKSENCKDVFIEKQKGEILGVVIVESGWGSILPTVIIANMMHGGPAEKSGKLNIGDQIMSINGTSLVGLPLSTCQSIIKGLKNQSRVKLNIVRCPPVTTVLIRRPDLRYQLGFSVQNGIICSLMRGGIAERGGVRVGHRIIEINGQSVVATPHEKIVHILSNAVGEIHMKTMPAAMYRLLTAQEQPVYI
T6 sequence (O43614 whole entry): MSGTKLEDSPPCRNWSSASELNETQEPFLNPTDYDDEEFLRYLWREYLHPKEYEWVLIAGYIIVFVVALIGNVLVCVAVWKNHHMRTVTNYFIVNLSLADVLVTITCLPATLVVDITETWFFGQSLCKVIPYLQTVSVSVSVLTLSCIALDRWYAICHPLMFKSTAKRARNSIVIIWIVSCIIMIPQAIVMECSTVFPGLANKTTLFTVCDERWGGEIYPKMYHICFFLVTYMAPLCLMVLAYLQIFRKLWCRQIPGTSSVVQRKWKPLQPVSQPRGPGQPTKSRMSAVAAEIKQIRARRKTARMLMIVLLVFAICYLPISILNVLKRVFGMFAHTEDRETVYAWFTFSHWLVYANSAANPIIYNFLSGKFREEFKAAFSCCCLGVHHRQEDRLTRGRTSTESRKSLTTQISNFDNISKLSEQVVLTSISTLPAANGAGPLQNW
T5 sequence (O43613 whole entry): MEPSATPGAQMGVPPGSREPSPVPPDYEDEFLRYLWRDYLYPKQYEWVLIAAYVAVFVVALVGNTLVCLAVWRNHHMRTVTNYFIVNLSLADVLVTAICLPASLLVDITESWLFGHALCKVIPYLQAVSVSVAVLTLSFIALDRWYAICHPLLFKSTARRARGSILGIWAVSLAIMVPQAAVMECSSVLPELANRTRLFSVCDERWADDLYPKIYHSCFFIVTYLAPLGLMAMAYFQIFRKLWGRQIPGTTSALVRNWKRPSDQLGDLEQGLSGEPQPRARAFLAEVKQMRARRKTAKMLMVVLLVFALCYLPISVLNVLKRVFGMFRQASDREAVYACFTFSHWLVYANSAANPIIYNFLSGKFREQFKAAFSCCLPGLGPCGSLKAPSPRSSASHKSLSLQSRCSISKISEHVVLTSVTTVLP
Protein disulfide-isomerase, sequence (P07237 whole entry): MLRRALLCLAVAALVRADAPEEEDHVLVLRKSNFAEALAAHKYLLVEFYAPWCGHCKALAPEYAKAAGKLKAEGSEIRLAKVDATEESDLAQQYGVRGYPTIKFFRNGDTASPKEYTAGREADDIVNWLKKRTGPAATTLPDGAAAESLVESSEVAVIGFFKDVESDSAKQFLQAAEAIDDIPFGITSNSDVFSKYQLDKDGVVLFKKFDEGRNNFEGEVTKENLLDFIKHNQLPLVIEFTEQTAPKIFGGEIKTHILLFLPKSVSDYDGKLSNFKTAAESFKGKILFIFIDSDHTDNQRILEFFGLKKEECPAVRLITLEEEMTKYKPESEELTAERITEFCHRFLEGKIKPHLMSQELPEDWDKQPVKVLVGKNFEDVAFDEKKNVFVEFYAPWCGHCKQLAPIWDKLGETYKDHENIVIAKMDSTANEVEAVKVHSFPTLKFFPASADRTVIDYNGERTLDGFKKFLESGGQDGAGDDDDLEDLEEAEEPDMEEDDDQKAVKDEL
Serine/threonine-protein kinase pim-1, sequence (P11309 whole entry): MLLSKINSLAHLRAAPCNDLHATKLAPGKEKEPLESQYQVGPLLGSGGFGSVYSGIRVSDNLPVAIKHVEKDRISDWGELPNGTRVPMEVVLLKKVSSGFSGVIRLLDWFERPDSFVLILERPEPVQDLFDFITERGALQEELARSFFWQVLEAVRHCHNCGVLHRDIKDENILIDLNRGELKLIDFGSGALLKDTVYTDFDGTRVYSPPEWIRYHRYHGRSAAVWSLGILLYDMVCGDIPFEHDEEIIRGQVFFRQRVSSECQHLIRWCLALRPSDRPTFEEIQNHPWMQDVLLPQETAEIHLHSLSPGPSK

CC(CNC(C)c1ccccc1)C(=O)O (stereo unspecified)
EC50 [1]: > 100 µM (inactive) | EC50 [2]: 80.6 µM (active)

O=C1NC(=O)C(=Cc2ccc(SC3CCCCC3)o2)C(=O)N1
IC50 [3]: 14.5 µM (active) | IC50 [4]: > 50 µM (inactive) | EC50 [5]: 12.7 µM (active) | IC50 [6]: 5.67 µM (active) | IC50 (Melanocortin receptor 4): > 21.5 µM (inactive) | IC50 [7]: > 64.6 µM (inactive) | AC50 [8]: > 20 µM (inactive)

C/C=C(\C)C(=O)NCCN1C2=NC[C@H](Cc3ccc(O)cc3)N2C[C@H]1Cc1ccc(O)cc1
AC50 [9]: 15.4 µM (active)

CC1CCN(C(=O)C2CCN(c3nnc(-n4cccc4)s3)CC2)CC1
CC50 [10]: > 100 µM (active) | CC50 [11]: > 100 µM (active) | CC50 [12]: > 50 µM (active) | CC50 [13]: > 100 µM (active) | CC50 [14]: > 100 µM (active)

O=C1Nc2ccccc2Nc2cc(-c3ccncc3F)ccc21
Ki [15]: > 10 µM (inactive) | Ki [16]: 0.00398 µM (active) | Ki [17]: 0.631 µM (active) | Ki [18]: 1.58 µM (active) | Ki [19]: 0.158 µM (active) | Ki [20]: 1 µM (active) | Ki [21]: 0.0251 µM (active) | Ki [22]: 0.794 µM (active)

Cc1ccc(/C=C2/Sc3ccccc3N(CC(=O)NCC3CCCO3)C2=O)cc1 (stereo unspecified)
IC50 (CHO-K1): > 66.2 µM (inactive) | IC50 [23]: > 49.8 µM (inactive) | IC50 [24]: 1.77 µM (active) | IC50 [25]: 5.59 µM (active) | IC50 (Orexin receptor type 2 [26]): 29.8 µM (inactive) | IC50 (Orexin receptor type 2 [27]): > 50 µM (inactive)

COc1c(F)cc(Oc2c(Cl)cnn(Cc3cccc4ccccc34)c2=O)cc1Cl
IC50 [28]: 5.05 µM (active) | IC50 [29]: 11.2 µM (inactive)
